Several values for one entry are separate records, joined by “and”; a condition that tells them apart may be missing. Identical values can stand only once. Toxic doses and inconclusive results are not listed. No stated cut-off is given here; in the data, active means T/C of 150% or more; inactive means T/C below 125%.
Test system: L1210 leukemia ip in BDF1 mice, survival T/C
Test: NCI In Vivo Anticancer Drug Screen. Data for tumor model L1210 Leukemia (intraperitoneal) in B6D2F1 (BDF1) mice
Settings: endpoint: mean survival time, higher = longer survival
Procedure, shortened: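 Value reflects the ratio of survival in compound-treated mice to survival in vehicle-treated controls, with both groups carrying the same transplanted tumor.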

[1] = dose: 50.0 mg/kg/injection, schedule: Q01DX009 (ip), vehicle: saline
[2] = dose: 100.0 mg/kg/injection, schedule: Q01DX009 (ip), vehicle: saline
[3] = dose: 100.0 mg/kg/injection, schedule: Q04DX002 (ip), vehicle: saline
[4] = dose: 200.0 mg/kg/injection, schedule: Q04DX002 (ip), vehicle: saline
[5] = dose: 400.0 mg/kg/injection, schedule: Q04DX002 (ip), vehicle: saline
[6] = dose: 100.0 mg/kg/injection, schedule: Q01DX001 (ip), vehicle: saline
[7] = dose: 200.0 mg/kg/injection, schedule: Q01DX001 (ip), vehicle: saline
[8] = dose: 400.0 mg/kg/injection, schedule: Q01DX001 (ip), vehicle: saline
[9] = dose: 25.0 mg/kg/injection, schedule: Q04DX003 (ip), vehicle: saline
[10] = dose: 50.0 mg/kg/injection, schedule: Q04DX003 (ip), vehicle: saline
[11] = dose: 100.0 mg/kg/injection, schedule: Q04DX003 (ip), vehicle: saline with Tween-80
[12] = dose: 200.0 mg/kg/injection, schedule: Q04DX003 (ip), vehicle: saline with Tween-80
[13] = dose: 400.0 mg/kg/injection, schedule: Q04DX003 (ip), vehicle: saline with Tween-80
[14] = dose: 100.0 mg/kg/injection, schedule: Q04DX002 (ip), vehicle: saline with Tween-80
[15] = dose: 200.0 mg/kg/injection, schedule: Q04DX002 (ip), vehicle: saline with Tween-80
[16] = dose: 100.0 mg/kg/injection, schedule: Q04DX003 (ip), vehicle: saline
[17] = dose: 200.0 mg/kg/injection, schedule: Q04DX003 (ip), vehicle: saline
[18] = dose: 400.0 mg/kg/injection, schedule: Q04DX003 (ip), vehicle: saline
[19] = dose: 50.0 mg/kg/injection, schedule: Q01DX009 (ip), vehicle: Klucel (hydroxypropylcellulose) (HPC)
[20] = dose: 100.0 mg/kg/injection, schedule: Q04DX003 (ip), vehicle: carboxymethylcellulose (CMC)
[21] = dose: 200.0 mg/kg/injection, schedule: Q04DX003 (ip), vehicle: carboxymethylcellulose (CMC)
[22] = dose: 400.0 mg/kg/injection, schedule: Q04DX003 (ip), vehicle: carboxymethylcellulose (CMC)

Measured: T/C

CCCCCCCC(=O)N(CC)CC
inactive: dose: 25.0 mg/kg/injection, schedule: Q04DX002 (ip), vehicle: saline 103 % of control | [1] 97 % of control | dose: 50.0 mg/kg/injection, schedule: Q04DX002 (ip), vehicle: saline 103 % of control | [2] 101 % of control | [3] 100 % of control | [4] 100 % of control and 102 % of control | [5] 102 % of control

Cc1cc(N(C)C)nc(SCc2ccc(Cl)cc2Cl)n1
inactive: dose: 200.0 mg/kg/injection, schedule: Q01DX Z (ip), vehicle: methylcellulose (MC) 105 % of control

COc1ccc(CN2CCCN(Cc3ccc(OC)cc3OC)C2c2ccccc2F)c(OC)c1
inactive: dose: 50.0 mg/kg/injection, schedule: Q01DX001 (ip), vehicle: saline 96 % of control | [6] 96 % of control | [7] 89 % of control | [8] 94 % of control

CN(C)C(=O)NCc1ccco1
inactive: dose: 12.5 mg/kg/injection, schedule: Q04DX003 (ip), vehicle: saline 97 % of control | [9] 95 % of control | [10] 101 % of control

Cc1cc2c(cc1[N+](=O)[O-])OCCO2
inactive: [11] 93 % of control | [12] 89 % of control | [13] 88 % of control

O=C1C2(Cl)C3(Cl)C4(Cl)C(Cl)(Cl)C5(Cl)[C@]3(Cl)C1(Cl)[C@]5(Cl)C24Cl (some centres undefined)
inactive: dose: 75.0 mg/kg/injection, schedule: Q01DX001 (ip), vehicle: carboxymethylcellulose (CMC) 102 % of control | dose: 150.0 mg/kg/injection, schedule: Q01DX001 (ip), vehicle: carboxymethylcellulose (CMC) 96 % of control

CC(C)c1ccc(N2C(=O)CSC2=S)cc1
inactive: [14] 97 % of control | [15] 87 % of control

O=C(O)C(Br)C(Br)c1ccccc1 (centres undefined)
inactive: [11] 101 % of control | [12] 106 % of control | [13] 96 % of control

[CH3][Sb]1([Cl])[CH2]CCC[CH2]1
inactive: [10] 97 % of control | [16] 104 % of control | [17] 104 % of control

CCOCCOCCOC(C)Oc1ccccc1 (centres undefined)
inactive: [3] 104 % of control | [4] 111 % of control | [5] 104 % of control

NC(N)=NCCCCCC(=O)O
inactive: [2] 95 % of control | [16] 103 % of control | dose: 200.0 mg/kg/injection, schedule: Q01DX009 (ip), vehicle: saline 88 % of control | [17] 100 % of control | [18] 101 % of control

CCOC(=O)N1Cc2cc3cc(OC)ccc3nc2C1
inactive: dose: 50.0 mg/kg/injection, schedule: Q01DX009 (ip), vehicle: acetone 98 % of control | dose: 100.0 mg/kg/injection, schedule: Q01DX009 (ip), vehicle: acetone 95 % of control | [16] 94 % of control | dose: 200.0 mg/kg/injection, schedule: Q01DX009 (ip), vehicle: acetone 95 % of control | [17] 89 % of control | [18] 105 % of control

Brc1ccc2oc3ccccc3c2c1
inactive: dose: 50.0 mg/kg/injection, schedule: Q04DX002 (ip), vehicle: Klucel (hydroxypropylcellulose) (HPC) 92 % of control | dose: 100.0 mg/kg/injection, schedule: Q04DX002 (ip), vehicle: Klucel (hydroxypropylcellulose) (HPC) 93 % of control | [3] 104 % of control | dose: 200.0 mg/kg/injection, schedule: Q04DX002 (ip), vehicle: Klucel (hydroxypropylcellulose) (HPC) 96 % of control | dose: 400.0 mg/kg/injection, schedule: Q04DX002 (ip), vehicle: Klucel (hydroxypropylcellulose) (HPC) 100 % of control | [5] 93 % of control

CC(=O)CCC(=O)CCC(=O)O
inactive: [3] 92 % of control | [4] 100 % of control | [5] 95 % of control

O=C(OCC1CCCO1)c1ccccc1O (centres undefined)
inactive: dose: 100.0 mg/kg/injection, schedule: Q04DX003 (ip), vehicle: Klucel (hydroxypropylcellulose) (HPC) 100 % of control | dose: 200.0 mg/kg/injection, schedule: Q04DX003 (ip), vehicle: Klucel (hydroxypropylcellulose) (HPC) 100 % of control | dose: 400.0 mg/kg/injection, schedule: Q04DX003 (ip), vehicle: Klucel (hydroxypropylcellulose) (HPC) 95 % of control

CCCN1C(=O)CC(=O)NC1=O
inactive: [6] 102 % of control | [7] 100 % of control | [8] 100 % of control

CN(C(=O)CCC(=O)N(C)c1ccccc1)c1ccccc1
inactive: dose: 100.0 mg/kg/injection, schedule: Q01DX009 (ip), vehicle: saline with Tween-80 97 % of control | dose: 200.0 mg/kg/injection, schedule: Q01DX009 (ip), vehicle: saline with Tween-80 87 % of control

CCCCCCCCCCCC[N+](C)(C)Cc1ccccc1
inactive: dose: 1.56 mg/kg/injection, schedule: Q01DX009 (ip), vehicle: saline 106 % of control | dose: 3.12 mg/kg/injection, schedule: Q01DX009 (ip), vehicle: saline 111 % of control | dose: 3.12 mg/kg/injection, schedule: Q04DX003 (ip), vehicle: saline 98 % of control | dose: 6.25 mg/kg/injection, schedule: Q04DX003 (ip), vehicle: saline 104 % of control | dose: 12.5 mg/kg/injection, schedule: Q01DX001 (ip), vehicle: saline 103 % of control

NC(=O)c1c(CC(=O)O)nn(-c2ccccc2)c1N
inactive: [19] 94 % of control | dose: 100.0 mg/kg/injection, schedule: Q01DX009 (ip), vehicle: Klucel (hydroxypropylcellulose) (HPC) 98 % of control | dose: 200.0 mg/kg/injection, schedule: Q01DX009 (ip), vehicle: Klucel (hydroxypropylcellulose) (HPC) 102 % of control

CN1CCC(C=C2c3ccccc3Sc3ccccc32)C1 (centres undefined)
inactive: dose: 8.0 mg/kg/injection, schedule: Q01DX015 (ip), vehicle: carboxymethylcellulose (CMC) 110 % of control | dose: 16.0 mg/kg/injection, schedule: Q01DX015 (ip), vehicle: carboxymethylcellulose (CMC) 102 % of control | dose: 32.0 mg/kg/injection, schedule: Q01DX015 (ip), vehicle: carboxymethylcellulose (CMC) 96 % of control | dose: 64.0 mg/kg/injection, schedule: Q01DX015 (ip), vehicle: carboxymethylcellulose (CMC) 98 % of control

O=C(O)/C=C\C(Cl)(Cl)Cl
inactive: [14] 97 % of control | [15] 93 % of control

Cc1c(CCl)c(C)c(CCl)c(C)c1CCl
inactive: dose: 12.0 mg/kg/injection, schedule: Q04DX003 (ip), vehicle: Klucel (hydroxypropylcellulose) (HPC) 105 % of control | dose: 25.0 mg/kg/injection, schedule: Q01DX009 (ip), vehicle: Klucel (hydroxypropylcellulose) (HPC) 88 % of control | dose: 25.0 mg/kg/injection, schedule: Q04DX003 (ip), vehicle: Klucel (hydroxypropylcellulose) (HPC) 100 % of control | [19] 100 % of control | dose: 50.0 mg/kg/injection, schedule: Q04DX003 (ip), vehicle: Klucel (hydroxypropylcellulose) (HPC) 100 % of control

C[C@H]1C[C@H]2[C@@H]3CC[C@](O)(C(=O)CF)[C@@]3(C)C[C@H](O)[C@]2(F)[C@@]2(C)C=CC(=O)C=C12
inactive: dose: 50.0 mg/kg/injection, schedule: Q01DX001 (ip), vehicle: carboxymethylcellulose (CMC) 105 % of control | dose: 100.0 mg/kg/injection, schedule: Q01DX001 (ip), vehicle: carboxymethylcellulose (CMC) 113 % of control | dose: 200.0 mg/kg/injection, schedule: Q01DX001 (ip), vehicle: carboxymethylcellulose (CMC) 113 % of control | dose: 400.0 mg/kg/injection, schedule: Q01DX001 (ip), vehicle: carboxymethylcellulose (CMC) 113 % of control

O=C1c2cccc3cc([N+](=O)[O-])cc(c23)C(=O)N1Cc1cccnc1
inactive: [20] 93 % of control | [21] 90 % of control | [22] 97 % of control

O=C(Oc1cc(Cl)c(S(=O)(=O)F)cc1Cl)c1ccccc1Cl
inactive: [20] 88 % of control | [21] 90 % of control | [22] 88 % of control

CN1CCC(=C2c3ccccc3C=Cc3ccccc32)CC1
inactive: dose: 6.25 mg/kg/injection, schedule: Q01DX009 (ip), vehicle: saline 95 % of control | dose: 12.5 mg/kg/injection, schedule: Q01DX009 (ip), vehicle: saline 90 % of control | dose: 25.0 mg/kg/injection, schedule: Q01DX009 (ip), vehicle: saline 95 % of control | [9] 96 % of control | [1] 98 % of control | [16] 102 % of control

Source: PubChem BioAssay AID248 (DTP/NCI, 2004)
